Where two headings read alike, the source gives them in different places.
Columns and labels:
HL-60 cells = experiment: MTT-dye reduction cytotoxicity assay, HL-60; format: cell-based, human; details: for IC50: Homo sapiens, HL-60
Procedure: (§1) The research included four leukemic and three cancer human cell lines: HL-60 (acute myeloid leukemia), SKW-3 (KE-37 derivative) (T-cell leukemia), BV-173 and K-562 (chronic myeloid leukemia), MDA-MB-231 (ER-negative breast carcinoma), MCF-7 (ER-positive breast adenocarcinoma), and SaOS-2 (osteogenic sarcoma). The cells were provided from the German Collection of Microorganisms and Cell Cultures (DSMZ, Braunschweig, Germany). The solid tumor cell lines (MDA-MB-231, MCF-7, and SaOS-2) were incubated in 90% RPMI-1640 supplemented with 10% fetal bovine serum (FBS), non-essential amino acids, 1 mM sodium pyruvate, and […] human insulin as monolayer adherent cultures. The remaining cell lines were cultivated as a suspension culture in cell culture flasks at 37 °C in an incubator “BB 16-Function Line” Heraeus (Kendro, Hanau, Germany) with humidified atmosphere and 5% CO2 under standard conditions–RPMI-1640 liquid media supplemented with 10% FBS and 2 mM L-glutamine. The cells were kept in log phase by supplementing with fresh media after removing cell suspension aliquots two or three times each week.
(§2) At least eight wells were used for each concentration.

KE-37 cells = experiment: MTT-dye reduction cytotoxicity assay, KE-37; format: cell-based, human; details: for IC50: Homo sapiens, KE-37
Procedure: as §1, §2

K-562 cells = experiment: MTT-dye reduction cytotoxicity assay, K-562; format: cell-based, human; details: for IC50: Homo sapiens, K562; for Ligand Efficiency (LE) K-562: LE = pIC50/number of heavy atoms
Procedure: as §1, §2

BV-173 cells = experiment: MTT-dye reduction cytotoxicity assay, BV-173; format: cell-based, human; details: for IC50: Homo sapiens, BV-173
Procedure: as §1, §2

SaOS-2 cells = experiment: MTT-dye reduction cytotoxicity assay, SaOS-2; format: cell-based, human; details: for IC50: Homo sapiens, SAOS-2
Procedure: as §1, §2

MDA-MB-231 cells = experiment: MTT-dye reduction cytotoxicity assay, MDA-MB-231; format: cell-based, human; details: for IC50: Homo sapiens, MDA-MB-231
Procedure: as §1, §2

MCF-7 cells = experiment: MTT-dye reduction cytotoxicity assay, MCF-7; format: cell-based, human; details: for IC50: Homo sapiens, MCF7
Procedure: as §1, §2

[1] = MTT-dye reduction cytotoxicity assay, normal HEK-293; details: human
Procedure: (§3) To assess the selectivity of the newly synthesized derivatives, they were tested on the normal human embryonic kidney HEK-293 cell line. The derived IC50 values were used to calculate the selectivity index according to the formula SI = IC50 (normal cells)/IC50 (cancer cells).
The cytotoxic activity of the examined substances was determined using Mossman’s MTT [3-(4,5-dimethylthiazol-2-yl)-2,5-diphenyltetrazolium bromide] dye reduction assay. The approach is based on the reduction of the yellow tetrazolium salt MTT to a violet formazan in live cells via mitochondrial succinate dehydrogenase. In brief, exponentially developing cells were seeded at a density of 1 × 10^5 cells per ml in 96-well flat-bottomed microplates (100 μL/well), and after 24 h of incubation at 37 °C, they were treated to varied doses of the tested substances for 72 h. At least eight wells were used for each concentration. Following the incubation with the test compounds, aliquots of 10 μL MTT solution (10 mg/mL in PBS) were applied to each well. The microplates were then incubated at 37 °C for 4 h before the MTT-formazan crystals were dissolved with 100 μL/well 5% HCOOH in 2-propanol. The MTT-formazan absorbance was measured at 580 nm using a microprocessor-controlled microplate reader (Labexim LMR-1).
The cell survival data were standardized as a percentage of the untreated control (set as 100% viability). The biological data were processed statistically using Student’s t-test, where values were considered statistically significant at p ≤ 0.05. The corresponding IC50 values were obtained to allow quantitative merit for the assessment of the relative potencies of the compounds under investigation. Each data point represents the arithmetic mean ± standard deviation (sd) of at least eight independent experiments.

[2] = system: HL-60, KE-37, K-562, BV-173, SaOS-2, MDA-MB-231, MCF-7 cell lines; experiment: Average over the cancer cell lines tested (LE, SI); format: cell-based, human; details: average over seven cancer cell lines
Procedure: as §3
The training set of salicylaldehyde hydrazones contained 11 compounds synthesized and tested before in our Lab. Their anticancer activities were measured and expressed as IC50 values on the following cell lines: HL-60, KE-37, K-562, BV-173, SaOS-2, MDA-MB-231, and MCF-7. For the purposes of SAR analysis, the IC50 values were converted in p-units (−logIC50) and ligand efficiencies (LEs) were calculated according to the formula: LE = pIC50/n, where n is the count of non-hydrogen atoms in the molecule.

[3] = training set, some activities published before [26-32], the rest measured for this study, read-out: IC50 ± standard deviation, HL-60
[4] = training set, some activities published before [26-32], the rest measured for this study, read-out: IC50 ± standard deviation, KE-37
[5] = training set, some activities published before [26-32], the rest measured for this study, read-out: IC50 ± standard deviation, K-562
[6] = training set, some activities published before [26-32], the rest measured for this study, read-out: IC50 ± standard deviation, BV-173
[7] = training set, some activities published before [26-32], the rest measured for this study, read-out: IC50 ± standard deviation, SaOS-2
[8] = training set, some activities published before [26-32], the rest measured for this study, read-out: IC50 ± standard deviation, MDA-MB-231
[9] = training set, some activities published before [26-32], the rest measured for this study, read-out: IC50 ± standard deviation, MCF-7
[10] = 72 h treatment, read-out: IC50 exp, SaOS-2
[11] = SI = IC50 (HEK-293)/IC50 (cancer cells)

Row | SMILES | IC50 (HL-60 cells; [3]) | IC50 (KE-37 cells; [4]) | IC50 (K-562 cells; [5]) | Ligand Efficiency (LE) K-562 (K-562 cells) | IC50 (BV-173 cells; [6]) | IC50 (SaOS-2 cells; [7]) | IC50 (MDA-MB-231 cells; [8]) | IC50 (MCF-7 cells; [9]) | other results
1 | O=C(N/N=C/c1cc([N+](=O)[O-])ccc1O)c1ccccc1 [Compound 6] | 5.64 ± 1.1 µM | 6.38 ± 0.2 µM | 7.94 ± 2.3 µM | 0.243 | 2.39 ± 0.3 µM | 41.9 ± 5.1 µM | 2.8 ± 2.7 µM | 0.25 ± 0.03 µM | –
2 | N[C@@H](Cc1ccc(N(CCCl)CCCl)cc1)C(=O)O [Melphalan, 2-amino-3-[4-bis(2-chloroethyl)amino]phenylpropanoic acid, reference compound] | – | – | – | – | – | 31.4 ± 5.4 µM | – | – | IC50 (SaOS-2 cells; [10]): 31.4 ± 5.4 µM; IC50 at 72 h [1]: 24.8 ± 2.9 µM
3 | COc1ccc(C=NNC(=O)c2ccncc2)c(O)c1 [Compound 14, 4-methoxysalicylaldehyde isonicotinoylhydrazone] | – | – | – | – | – | – | – | – | IC50 (HL-60 cells; 72 h treatment, read-out: IC50 exp, HL-60): 0.06 ± 0.004 µM; SI (selectivity index) HL-60 (HL-60 cells; [11]): 685; IC50 (KE-37 cells; 72 h treatment, read-out: IC50 exp, KE-37): 2.26 ± 0.73 µM; SI (selectivity index) KE-37 (KE-37 cells; [11]): 18; IC50 (K-562 cells; 72 h treatment, read-out: IC50 exp, K-562): 0.05 ± 0.008 µM; SI (selectivity index) K-562 (K-562 cells; [11]): 821; IC50 (BV-173 cells; 72 h treatment, read-out: IC50 exp, BV-173): 0.97 ± 0.12 µM; SI (selectivity index) BV-173 (BV-173 cells; [11]): 42; IC50 (SaOS-2 cells; [10]): 1.66 ± 0.24 µM; SI (selectivity index) SaOS-2 (SaOS-2 cells; [11]): 25; IC50 (MDA-MB-231 cells; 72 h treatment, read-out: IC50 exp, MDA-MB-231): 1.22 ± 0.19 µM; SI (selectivity index) MDA-MB-231 (MDA-MB-231 cells; [11]): 34; IC50 (MCF-7 cells; 72 h treatment, read-out: IC50 exp, MCF-7): 0.23 ± 0.04 µM; SI (selectivity index) MCF-7 (MCF-7 cells; [11]): 179; IC50 at 72 h ([1]; HEK-293 cells (normal human embryonic kidney)): 41.1 ± 2.05 µM; average SI [2]: 258
4 | O=C(N/N=C/c1cc([N+](=O)[O-])ccc1O)c1ccc(O)cc1 [Compound 7] | 14.5 ± 2.1 µM | 19.9 ± 2.2 µM | > 200 µM | – | 7.62 ± 1 µM | 199 ± 12 µM | > 200 µM | 4.95 ± 0.06 µM | –
5 | COc1ccc(C=NNC(=O)c2ccncc2)c(O)c1 (hydrate or solvate) [Compound 14, 4-methoxysalicylaldehyde isonicotinoylhydrazone] | – | – | – | – | – | – | – | – | melting point: 232 to 233 °C
6 | O=C(N/N=C/c1cc(Br)ccc1O)c1ccncc1 [Compound 5] | 4.13 ± 1.2 µM | 2.53 ± 1 µM | 0.14 ± 0.09 µM | 0.360 | 0.63 ± 0.2 µM | 146 ± 8.9 µM | 38.4 ± 2 µM | 0.26 ± 0.03 µM | –
7 | COc1cccc(/C=N/NC(=O)c2ccc(O)cc2)c1O [Compound 2] | 9.2 ± 2.4 µM | 7.6 ± 2.1 µM | 14.3 ± 2.9 µM | 0.231 | 7.8 ± 2 µM | 19.2 ± 3.1 µM | 24.2 ± 3.8 µM | 19.7 ± 2.2 µM | –
8 | O=C(N/N=C/c1cc([N+](=O)[O-])ccc1O)c1ccncc1 [Compound 8] | 15 ± 2.4 µM | 17 ± 3.1 µM | 19 ± 2.7 µM | 0.225 | 10.2 ± 1.1 µM | 35.7 ± 4.3 µM | 72.3 ± 5.6 µM | 0.18 ± 0.03 µM | –
9 | COc1cccc(/C=N/NC(=O)c2ccccc2)c1O [Compound 1] | 11.3 ± 2.6 µM | 9.8 ± 3.1 µM | 27 ± 2.7 µM | 0.228 | 20.8 ± 4.2 µM | 25.5 ± 6.2 µM | 25.3 ± 2.7 µM | 22.5 ± 5.4 µM | –
10 | COc1ccc(O)c(/C=N/NC(=O)c2ccccc2)c1 [Compound 9] | 5.29 ± 1.2 µM | 3.38 ± 1 µM | – | – | 3.15 ± 0.8 µM | – | 4.46 ± 1.1 µM | 0.91 ± 0.3 µM | –
11 | COc1ccc(O)c(/C=N/NC(=O)c2ccncc2)c1 [Compound 11] | 6.68 ± 1.4 µM | 10.9 ± 2.2 µM | – | – | 2.95 ± 0.8 µM | – | 5.58 ± 1.3 µM | 3 ± 0.6 µM | –
12 | O=C(N/N=C/c1cc(Br)ccc1O)c1ccc(O)cc1 [Compound 4] | 3.14 ± 1.1 µM | 3 ± 0.5 µM | 2.83 ± 0.3 µM | 0.277 | – | 50 ± 5.7 µM | 20.1 ± 3.9 µM | 8.88 ± 2.7 µM | –
13 | COc1ccc(O)c(/C=N/NC(=O)c2ccc(O)cc2)c1 [Compound 10] | 13.8 ± 3.1 µM | 14.8 ± 2.5 µM | – | – | 3.86 ± 0.9 µM | – | 12.1 ± 1.9 µM | 3.54 ± 0.5 µM | –
14 | COc1cccc(/C=N/NC(=O)c2ccncc2)c1O [Compound 3] | 2.7 ± 0.9 µM | 3.3 ± 1.2 µM | 8.7 ± 2 µM | 0.253 | 3.7 ± 1.1 µM | 11.9 ± 3.2 µM | 16.4 ± 2 µM | 11.7 ± 2.4 µM | –

Reference: PMC10138506, “Design, Synthesis and Cytotoxic Activity of Novel Salicylaldehyde Hydrazones against Leukemia and Breast Cancer” (International Journal of Molecular Sciences, 2023)
